Consider twelve compounds from patent publication US11225480B2, “Malic enzyme inhibitors” (SUN PHARMA ADVANCED RESEARCH COMPANY LTD, priority 2019, dated 2022).

What all share (type): biochemical
The target of one experiment is T1, human ME3 enzyme (Homo sapiens, UniProt Q16798).
T1 sequence (Q16798 1-604): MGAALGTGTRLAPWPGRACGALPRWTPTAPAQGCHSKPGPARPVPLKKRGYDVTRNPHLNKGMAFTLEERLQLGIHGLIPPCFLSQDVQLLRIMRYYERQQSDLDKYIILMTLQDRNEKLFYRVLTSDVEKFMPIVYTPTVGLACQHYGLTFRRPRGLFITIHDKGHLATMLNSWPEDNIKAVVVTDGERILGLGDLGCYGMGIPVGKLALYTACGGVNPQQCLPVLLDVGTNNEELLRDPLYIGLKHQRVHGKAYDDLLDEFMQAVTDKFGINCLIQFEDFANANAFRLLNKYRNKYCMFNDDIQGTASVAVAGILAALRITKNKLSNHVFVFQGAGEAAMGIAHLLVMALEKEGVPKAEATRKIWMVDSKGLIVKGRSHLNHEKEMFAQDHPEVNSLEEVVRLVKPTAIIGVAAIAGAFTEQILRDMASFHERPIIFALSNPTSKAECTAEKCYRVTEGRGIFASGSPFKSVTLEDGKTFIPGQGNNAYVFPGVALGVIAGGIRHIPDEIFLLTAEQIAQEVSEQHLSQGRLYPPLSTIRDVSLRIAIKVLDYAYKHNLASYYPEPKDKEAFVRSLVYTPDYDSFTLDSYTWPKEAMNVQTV
Description: ME3 inhibition assay (diaphorase/resazurin coupled fluorescence). The following applies: 10 μM compound concentration; read-out: Malic Enzyme 3 % inhibition (10 μM). The method in brief:
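Coupled read-out: NADPH made by human ME3 (20 nM stock) drives diaphorase conversion of resazurin (50 μM) to resorufin; buffer 50 mM Tris-HCl pH 7.5, 10 mM MnCl2, 3 mM L-malate.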

The target in another experiment is human ME2 enzyme (Homo sapiens, UniProt P23368). Kind of experiment: ME2 inhibition assay (diaphorase/resazurin coupled fluorescence). As to conditions: 10 μM compound concentration; read-out: Malic Enzyme 2 % inhibition (10 μM). An outline of the steps: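 Human ME2 (10 μL of 60 nM) was preincubated 5 min at room temperature with compound (10 μM) in 50 mM Tris-HCl pH 7.5, 10 mM MnCl2, 7 mM L-malate, 50 μM resazurin and 0.025 mg/ml diaphorase. The reaction was started with 10 μL of 2 mM β-NAD+ and run 2 hours at room temperature. Resorufin fluorescence (ex 540/em 600 nm) was normalized to enzyme-only (100%) and no-enzyme (0%) controls as % activity.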
Chain of human ME2 enzyme (P23368 19-584): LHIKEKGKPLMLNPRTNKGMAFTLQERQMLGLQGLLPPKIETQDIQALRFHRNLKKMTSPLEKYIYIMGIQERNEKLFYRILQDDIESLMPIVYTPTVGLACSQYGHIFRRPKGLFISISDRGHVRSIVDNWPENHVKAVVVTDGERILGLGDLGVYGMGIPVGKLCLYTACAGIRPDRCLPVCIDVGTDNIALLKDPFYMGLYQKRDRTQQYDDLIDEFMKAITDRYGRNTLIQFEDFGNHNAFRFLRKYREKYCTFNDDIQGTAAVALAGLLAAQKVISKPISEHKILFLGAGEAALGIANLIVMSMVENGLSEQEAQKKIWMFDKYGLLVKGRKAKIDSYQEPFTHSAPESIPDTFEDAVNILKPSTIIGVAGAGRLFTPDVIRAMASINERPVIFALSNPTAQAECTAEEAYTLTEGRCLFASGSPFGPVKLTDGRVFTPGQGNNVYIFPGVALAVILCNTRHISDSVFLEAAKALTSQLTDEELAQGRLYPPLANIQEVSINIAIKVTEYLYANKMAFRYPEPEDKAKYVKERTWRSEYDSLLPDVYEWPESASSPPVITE
(The colour change of resazurin is a common sign of viable cells or microbes.)

The target in another experiment is T2, human ME1 enzyme (Homo sapiens, UniProt P48163).
T2 sequence (P48163 1-572): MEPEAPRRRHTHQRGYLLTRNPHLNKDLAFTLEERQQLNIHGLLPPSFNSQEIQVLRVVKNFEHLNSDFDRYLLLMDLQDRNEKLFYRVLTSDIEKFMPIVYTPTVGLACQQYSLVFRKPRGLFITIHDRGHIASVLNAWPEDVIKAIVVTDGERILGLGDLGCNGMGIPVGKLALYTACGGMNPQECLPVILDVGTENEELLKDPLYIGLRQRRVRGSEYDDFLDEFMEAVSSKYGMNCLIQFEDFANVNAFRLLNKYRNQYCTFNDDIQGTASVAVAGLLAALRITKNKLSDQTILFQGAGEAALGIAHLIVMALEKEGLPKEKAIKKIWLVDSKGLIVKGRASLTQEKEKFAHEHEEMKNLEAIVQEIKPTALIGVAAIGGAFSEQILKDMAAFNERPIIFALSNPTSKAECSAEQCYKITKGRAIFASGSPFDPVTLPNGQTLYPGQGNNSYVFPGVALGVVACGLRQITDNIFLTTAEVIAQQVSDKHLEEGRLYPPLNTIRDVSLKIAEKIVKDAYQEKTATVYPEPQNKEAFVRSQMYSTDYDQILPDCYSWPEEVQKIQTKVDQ
Description: ME1 inhibition assay (diaphorase/resazurin coupled fluorescence). As to conditions: 10 μM compound concentration; read-out: Malic Enzyme 1 % inhibition (10 μM). An outline of the steps: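 Compounds at 10 μM preincubated 15 min in 50 mM Tris-HCl pH 7.5, 10 mM MnCl2, 2 mM L-malate, 10 μM resazurin, 0.01 mg/ml diaphorase, then human ME1 added for 5 min; reaction started with NADP+ and run 2 h at room temperature. Resorufin fluorescence (ex 540/em 600 nm) normalized to enzyme-only (100%) and no-enzyme (0%) controls.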

What is called inhibition is how much of the control response was suppressed. With `CC(C)(CC(=O)N1CCN(c2ccc(O)cn2)CC1)c1ccccc1` [I.125, 1-[4-(5-Hydroxy-pyridin-2-yl)-piperazin-1-yl]-3-methyl-3-phenyl-butan-1-one], the inhibition at 10 µM at human ME3 enzyme, on human ME2 enzyme and at human ME1 enzyme was more than 90% in each case.
Take `O=C(CCc1ccc(F)cc1)N1CCN(c2ccc(O)cn2)CC1` [I.126, 3-(4-Fluoro-phenyl)-1-[4-(5-hydroxy-pyridin-2-yl)-piperazin-1-yl]-propan-1-one]: the inhibition at 10 µM at human ME3 enzyme, at human ME2 enzyme and on human ME1 enzyme was more than 90% each time.
Turning to `Cc1[nH]c2ccccc2c1CC(=O)N1CCN(c2ccc(O)cn2)CC1` [I.127, 1-[4-(5-Hydroxy-pyridin-2-yl)-piperazin-1-yl]-2-(2-methyl-1H-indol-3-yl)-ethanone], the inhibition at 10 µM at human ME3 enzyme, at human ME2 enzyme and at human ME1 enzyme was more than 90% in each case.
Consider `O=C(CCc1ccccc1C(F)(F)F)N1CCN(c2ccc(O)cn2)CC1` [I.128, 1-[4-(5-Hydroxy-pyridin-2-yl)-piperazin-1-yl]-3-(2-trifluoro-methylphenyl)-propan-1-one], for which the inhibition at 10 µM on human ME3 enzyme, on human ME2 enzyme and at human ME1 enzyme was more than 90% in each case.
For the compound `O=C(CCc1ccccn1)N1CCN(c2ccc(O)cn2)CC1` [I.129, 1-[4-(5-Hydroxy-pyridin-2-yl)-piperazin-1-yl]-3-pyridin-2-yl-propan-1-one], the inhibition at 10 µM at human ME3 enzyme was more than 90%; on human ME2 enzyme it was 70 to 89%; at human ME1 enzyme, 70 to 89%.
In the case of `O=C(CC(O)c1ccccc1)N1CCN(c2ccc(O)cn2)CC1` (stereo not drawn) [I.130, 3-Hydroxy-1-[4-(5-hydroxy-pyridin-2-yl)-piperazin-1-yl]-3-phenyl-propan-1-one], the inhibition at 10 µM on human ME3 enzyme was more than 90%; on human ME2 enzyme, more than 90%; at human ME1 enzyme it was 70 to 89%.
For `O=C(Cc1c[nH]c2ccc(F)cc12)N1CCN(c2ccc(O)cn2)CC1` [I.131, 2-(5-fluoro-1H-indol-3-yl)-1-[4-(5-hydroxypyridin-2-yl)-piperazin-1-yl]-ethanone], the inhibition at 10 µM at human ME3 enzyme, on human ME2 enzyme and at human ME1 enzyme was more than 90% each time.
In the case of `O=C(C1CCCc2ccccc21)N1CCN(c2ccc(O)cn2)CC1` (stereo not drawn) [I.132, [4-(5-Hydroxy-pyridin-2-yl)-piperazin-1-yl]-(1,2,3,4-tetrahydro-naphthalen-1-yl)-methanone], the inhibition at 10 µM on human ME3 enzyme is more than 90%; at human ME2 enzyme, more than 90%; on human ME1 enzyme, 70 to 89%.
In the case of `O=C(C1CC(c2ccccc2)C1)N1CCN(c2ccc(O)cn2)CC1` (stereo not drawn) [I.134, [4-(5-Hydroxy-pyridin-2-yl)-piperazin-1-yl]-(3-phenyl-cyclobutyl)-methanone], the inhibition at 10 µM at human ME3 enzyme, on human ME2 enzyme and on human ME1 enzyme was more than 90% throughout.
Take `O=C(CCn1ccc2ccccc21)N1CCN(c2ccc(O)cn2)CC1` [I.135, 1-[4-(5-Hydroxy-pyridin-2-yl)-piperazin-1-yl]-3-indol-1-yl-propan-1-one]: the inhibition at 10 µM is more than 90% on human ME3 enzyme, more than 90% at human ME2 enzyme and 70 to 89% on human ME1 enzyme.
Take `O=C(CCn1cnc2ccccc21)N1CCN(c2ccc(O)cn2)CC1` [I.136, 3-Benzo-imidazol-1-yl-1-[4-(5-hydroxy-pyridin-2-yl)-piperazin-1-yl]-propan-1-one]: the inhibition at 10 µM on human ME3 enzyme was more than 90%; at human ME2 enzyme it was more than 90%; on human ME1 enzyme it was 70 to 89%.
`O=C(CC1CC1)N1CCN(c2ccc(O)cn2)CC1` [I.137, 2-Cyclo-propyl-1-[4-(5-hydroxy-2-pyridyl)-piperazin-1-yl]ethanone]: the inhibition at 10 µM at human ME3 enzyme, at human ME2 enzyme and on human ME1 enzyme was more than 90% each time.
